The term EC50 denotes the midpoint of the concentration-response curve. A high value points to a less potent agent.

The assay concerns the target T1, LCAT (Homo sapiens, UniProt P04180).
T1 construct: The obtained fraction was dialyzed against phosphate-buffered saline (pH 7.4) and used as an enzyme source and an acceptor for LCAT; from tissue; host or cells: HDL3 fraction (1.125<specific gravity<1.210 g/mL) of plasma from a healthy person
T1 sequence (P04180 25-440): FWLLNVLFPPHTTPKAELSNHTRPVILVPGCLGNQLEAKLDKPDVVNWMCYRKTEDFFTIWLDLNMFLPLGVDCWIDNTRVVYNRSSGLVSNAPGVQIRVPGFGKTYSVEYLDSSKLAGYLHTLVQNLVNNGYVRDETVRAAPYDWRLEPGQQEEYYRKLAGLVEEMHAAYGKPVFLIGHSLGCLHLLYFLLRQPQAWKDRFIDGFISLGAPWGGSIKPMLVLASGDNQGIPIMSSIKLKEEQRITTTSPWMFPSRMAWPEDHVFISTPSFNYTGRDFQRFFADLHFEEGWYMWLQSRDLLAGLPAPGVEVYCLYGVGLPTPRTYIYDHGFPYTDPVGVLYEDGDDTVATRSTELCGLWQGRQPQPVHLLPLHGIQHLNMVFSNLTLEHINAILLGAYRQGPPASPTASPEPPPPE
The assay can be described thus: LCAT Activity Measurement (In Vitro). In kind it is biochemical. To be noted: EC50 of LCAT activation; HDL3 fraction from plasma of a healthy person as enzyme source and acceptor; [14C]cholesterol; 37° C., approximately 16 hours. An outline of the steps: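 Human plasma HDL3 (1 mg/mL, PBS pH 7.4) served as enzyme and acceptor with [14C]cholesterol, 0.5 mM DTNB, 12.5 mM mercaptoethanol and 0.6% BSA; compounds in DMSO, incubated ~16 h at 37 °C. Cholesterol oleate radioactivity quantified after extraction and TLC; EC50 of activation fitted relative to no-drug control.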
`O=C1CC(O)(C(F)(F)F)c2c(C3CCN(c4nnc(C(F)(F)F)s4)CC3)n[nH]c2N1` (centres unmarked) [Example 47, 4-Hydroxy-4-(trifluoromethyl)-3-{1-[5-(trifluoromethyl)-1,3,4-thiadiazol-2-yl]piperidin-4-yl}-1,4,5,7-tetrahydro-6H-pyrazolo[3,4-b]pyridin-6-one] came in with an EC50 of 96 nM.
`O=C1CC(O)(C(F)(F)F)c2c(C3CCN(c4cnc(OC(F)F)c(OC(F)F)c4)CC3)n[nH]c2N1` (centres unmarked) [Example 63, 3-{1-[5,6-bis(Difluoromethoxy)pyridin-3-yl]piperidin-4-yl}-4-hydroxy-4-(trifluoromethyl)-1,4,5,7-tetrahydro-6H-pyrazolo[3,4-b]pyridin-6-one] yielded an EC50 of 31 nM.
For the molecule `CC(C)Oc1ccc(N2CCC(c3n[nH]c4c3C(O)(C(F)(F)F)CC(=O)N4)CC2)nc1` (centres unmarked) [Example 52, 4-Hydroxy-3-{1-[5-(propan-2-yloxy)pyridin-2-yl]piperidin-4-yl}-4-(trifluoromethyl)-1,4,5,7-tetrahydro-6H-pyrazolo[3,4-b]pyridin-6-one], the EC50 was determined as 67 nM.
`CN(C)C(=O)c1cc(N2CCC(c3n[nH]c4c3C(O)(C(F)(F)F)CC(=O)N4)CC2)ccc1C(F)(F)F` (centres unmarked) [Example 69, 5-{4-[4-Hydroxy-6-oxo-4-(trifluoromethyl)-4,5,6,7-tetrahydro-1H-pyrazolo[3,4-b]pyridin-3-yl]piperidin-1-yl}-N,N-dimethyl-2-(trifluoromethyl)benzamide] gave an EC50 of 190 nM.
To `O=C1CC(O)(C(F)(F)F)c2c(C3CCN(c4nc(C5CC5)no4)CC3)n[nH]c2N1` (centres unmarked) [Example 71, 3-[1-(3-Cyclopropyl-1,2,4-oxadiazol-5-yl)piperidin-4-yl]-4-hydroxy-4-(trifluoromethyl)-1,4,5,7-tetrahydro-6H-pyrazolo[3,4-b]pyridin-6-one] belongs 520 nM.
Molecule `O=C1CC(O)(C(F)(F)F)c2c(C3CCN(c4ccc(C(F)(F)F)cn4)CC3)n[nH]c2N1` (single isomer, unassigned; (-)) [Compound 49-1, (−)-4-Hydroxy-4-(trifluoromethyl)-3-{1-[5-(trifluoromethyl)pyridin-2-yl]piperidin-4-yl}-1,4,5,7-tetrahydro-6H-pyrazolo[3,4-b]pyridin-6-one] returned an EC50 of 18 nM.
Turning to `O=C1CC(O)(C(F)(F)F)c2c(C3CCN(c4nc(-c5ccccc5)cs4)CC3)n[nH]c2N1` (centres unmarked) [Example 90, 4-Hydroxy-3-[1-(4-phenyl-1,3-thiazol-2-yl)piperidin-4-yl]-4-(trifluoromethyl)-1,4,5,7-tetrahydro-6H-pyrazolo[3,4-b]pyridin-6-one], a half-maximal effect (EC50) was put at 310 nM.
As for `O=C1CC(O)(C(F)(F)F)c2c(C3CCN(c4nc(C(F)(F)F)cs4)CC3)n[nH]c2N1` (centres unmarked) [Compound 48-a, 4-Hydroxy-4-(trifluoromethyl)-3-{1-[4-(trifluoromethyl)-1,3-thiazol-2-yl]piperidin-4-yl}-1,4,5,7-tetrahydro-6H-pyrazolo[3,4-b]pyridin-6-one], the figure is 80 nM; as for `O=C1CC(O)(C(F)(F)F)c2c(C3CCN(c4cc(C(F)(F)F)nc(C5CC5)n4)CC3)n[nH]c2N1` (centres unmarked) [Example 92, 3-{1-[2-Cyclopropyl-6-(trifluoromethyl)pyrimidin-4-yl]piperidin-4-yl}-4-hydroxy-4-(trifluoromethyl)-1,4,5,7-tetrahydro-6H-pyrazolo[3,4-b]pyridin-6-one], 210 nM.
The molecule `O=C1CC(O)(C(F)(F)F)c2c(C3CCN(c4ccc(C5CC5)cn4)CC3)n[nH]c2N1` (centres unmarked) [Example 99, 3-[1-(5-Cyclopropylpyridin-2-yl)piperidin-4-yl]-4-hydroxy-4-(trifluoromethyl)-1,4,5,7-tetrahydro-6H-pyrazolo[3,4-b]pyridin-6-one] came in with an EC50 of 75 nM.
As for `CC(C)c1ccc(N2CCC(c3n[nH]c4c3C(O)(C(F)(F)F)CC(=O)N4)CC2)nc1` (centres unmarked) [Example 64, 4-Hydroxy-3-{1-[5-isopropylpyridin-2-yl]piperidin-4-yl]-4-(trifluoromethyl)-1,4,5,7-tetrahydro-6H-pyrazolo[3,4-b]pyridin-6-one], the figure is 56 nM.
Molecule `N#Cc1cccc(N2CCC(c3n[nH]c4c3C(O)(C(F)(F)F)CC(=O)N4)CC2)n1` (centres unmarked) [Example 22, 6-{4-[4-Hydroxy-6-oxo-4-(trifluoromethyl)-4,5,6,7-tetrahydro-1H-pyrazolo[3,4-b]pyridin-3-yl]piperidin-1-yl}pyridine-2-carbonitrile] yielded an EC50 of 180 nM.
As for `O=C1CC(O)(C(F)(F)F)c2c(C3CCN(c4ccc(F)cc4)CC3)n[nH]c2N1` (centres unmarked) [Example 70, 3-[1-(4-Fluorophenyl)piperidin-4-yl]-4-hydroxy-4-(trifluoromethyl)-1,4,5,7-tetrahydro-6H-pyrazolo[3,4-b]pyridin-6-one], the midpoint of the response, the EC50, lay at 300 nM.
In the case of `CCc1ccc(N2CCC(c3n[nH]c4c3C(O)(C(F)(F)F)CC(=O)N4)CC2)nc1` (centres unmarked) [Example 73, 3-[1-(5-Ethylpyridin-2-yl)piperidin-4-yl]-4-hydroxy-4-(trifluoromethyl)-1,4,5,7-tetrahydro-6H-pyrazolo[3,4-b]pyridin-6-one], the midpoint of the response, the EC50, lay at 83 nM.
As for `N#Cc1ccc(N2CCC(c3n[nH]c4c3C(O)(C(F)(F)F)CC(=O)N4)CC2)nc1Cl` (centres unmarked) [Example 21, 2-Chloro-6-{4-[4-hydroxy-6-oxo-4-(trifluoromethyl)-4,5,6,7-tetrahydro-1H-pyrazolo[3,4-b]pyridin-3-yl]piperidin-1-yl}pyridine-3-carbonitrile], the figure is 270 nM; as for `O=C1CC(O)(C(F)(F)F)c2c(C3CCN(c4ccnc(C(F)(F)F)n4)CC3)n[nH]c2N1` (centres unmarked) [Example 79, 4-Hydroxy-4-(trifluoromethyl)-3-{1-[2-(trifluoromethyl)pyrimidin-4-yl]piperidin-4-yl}-1,4,5,7-tetrahydro-6H-pyrazolo[3,4-b]pyridin-6-one], 300 nM.
The molecule `O=C1CC(O)(C(F)(F)F)c2c(C3CCN(c4cc(I)c(C(F)(F)F)cn4)CC3)n[nH]c2N1` (single isomer, unassigned) [Compound 103-2, 4-hydroxy-3-{1-[4-iodo-5-(trifluoromethyl)pyridin-2-yl]piperidin-4-yl}-4-(trifluoromethyl)-1,4,5,7-tetrahydro-6H-pyrazolo[3,4-b]pyridin-6-one] yielded an EC50 of 530 nM.
As for `COc1cccc(N2CCC(c3n[nH]c4c3C(O)(C(F)(F)F)CC(=O)N4)CC2)n1` (centres unmarked) [Example 12, 4-Hydroxy-3-[1-(6-methoxypyridin-2-yl)piperidin-4-yl]-4-(trifluoromethyl)-1,4,5,7-tetrahydro-6H-pyrazolo[3,4-b]pyridin-6-one], the figure is 54 nM; as for `CN(C)c1nc(N2CCC(c3n[nH]c4c3C(O)(C(F)(F)F)CC(=O)N4)CC2)cc(C(F)(F)F)n1` (centres unmarked) [Example 93, 3-{1-[2-(Dimethylamino)-6-(trifluoromethyl)pyrimidin-4-yl]piperidin-4-yl}-4-hydroxy-4-(trifluoromethyl)-1,4,5,7-tetrahydro-6H-pyrazolo[3,4-b]pyridin-6-one], 84 nM; as for `COC(=O)c1cc(N2CCC(c3n[nH]c4c3C(O)(C(F)(F)F)CC(=O)N4)CC2)ncc1C(F)(F)F` (centres unmarked) [Example 82, Methyl 2-{4-[4-hydroxy-6-oxo-4-(trifluoromethyl)-4,5,6,7-tetrahydro-1H-pyrazolo[3,4-b]pyridin-3-yl]piperidin-1-yl}-5-(trifluoromethyl)pyridine-4-carboxylate], 32 nM.

The record behind these values is patent US9150575B2, “Piperidinylpyrazolopyridine derivative” (Daiichi Sankyo Company, Limited, priority 2012, dated 2015).
